The text below walks through data of patent US11752132B2, “Materials and methods for improving gastrointestinal function” (University of Florida Research Foundation, Incorporated, priority 2010, dated 2023).

One series concerns small intestine mucosa. Conditions: mouse, in vivo.
The subject of series [1] is jejunal mucosa (net anion secretion). Briefly: Ussing chamber transepithelial short circuit current (Isc) with transport blockers/forskolin. The format is cell-based, mice. Particulars: for basal Isc after bumetanide: 100 μM bumetanide in bath solution. From the text:
To study active HCO3^− secretion, 8-week-old, non-irradiated and irradiated, male BALB/c mice were obtained from the National Cancer Institute. Mice were randomly divided into groups, and abdomens were irradiated according to the gastrointestinal acute radiation syndrome (GI ARS) model with a Shepherd Mark-I, using a ^137Cs source delivering γ-irradiation at 1.84 Gy/min. Radiation was given as a single fraction. The GI ARS model will achieve maximum radiation damage to intestinal tissues, and mimics intestinal injury during radiation therapy of pelvic or abdominal tumors.
Changes in short circuit current (Isc), both as a function of time following radiation and with increasing doses of radiation, were examined to determine the earliest time and the minimum radiation dose required to produce significant changes in Isc. These studies were approved by the University of Rochester Animal Care and Use Committee.
Following exsanguinations, jejunal segment was obtained by excluding the distal 12 cm of small intestine adjacent to the caecum. This segment was washed and flushed in ice-cold Ringer's solution before the mucosa was stripped from the underlying muscular layers (Zhang, Ameen et al. 2007). The mucosa was mounted between the 2 halves of an Ussing-type Lucite chamber with an area of 0.30 cm^2 (P2304, Physiologic instruments, San Diego, Calif. 92128 USA), and electrical parameters were recorded using a voltage/current clamp device (VCC MC-8, Physiologic instruments, San Diego, Calif. 92128 USA) (Vidyasagar et al. 2005; Vidyasagar et al. 2004; Zhang et al. 2007; Vidyasagar and Ramakrishna 2002).
To determine the contribution of NKCC1 to basal Isc, 100 μM bumetanide (Sigma-Aldrich Co., USA) was added to the bath solution.
To determine whether the bumetanide-insensitive portion of Isc occurs via an apical membrane anion channel, a non-specific anion channel blocker, 5-nitro-2-(3-phenylpropylamino)-benzoic acid (Sigma-Aldrich Co., USA) (10 μM NPPB), and a specific cystic fibrosis transmembrane conductance regulator (CFTR) blocker (100 μM glibenclamide, Sigma-Aldrich Co., USA) were applied.

Series [2] deals with jejunum (HCO3^− secretion). Briefly: pH stat measurement of HCO3^− secretion in stripped jejunal sheets. The format is cell-based, mice. Particulars: for forskolin-stimulated HCO3^− secretion after blocker: blocker on luminal side (100 μM glibenclamide; NPPB). Here is the method:
A Bi-burette TIM 856 (Radiometer Analytical SAS, Villeurbanne, France) was used to measure HCO3^− secretion in stripped jejunal sheets (Vidyasagar et al. 2005; Vidyasagar et al. 2004; Zhang et al. 2007). Automated pumps maintained a constant pH for luminal solution through the addition of 0.01 μl of 0.025 M sulfuric acid (H2SO4). Standard-to-stat pH calibration was established by adding a known quantity of H2SO4 to a weak buffering solution, which contains an increasing concentration of HCO3^− to produce a linear titration curve.
Jejunal tissues were exposed to a buffered solution on the bath side (serosal side), while the luminal side was exposed to an HCO3^− free, low-buffered solution (0.1-mM HEPES (4-(2-hydroxyethyl)-1-piperazineethanesulfonic acid) buffer, pH 7.4). The HCO3^− secretion was equivalent to the amount of acid added to the luminal solution to maintain the pH at 7.4 (or the stat pH). All experiments were performed under voltage-clamp conditions. HCO3^−-free solution was gassed with 100% O2 and HCO3^−-containing solution was gassed with 95% O2 and 5% CO2. The HCO3^− secretion was expressed as μeq h^−1·cm^−2 (Vidyasagar et al. 2005; Vidyasagar et al. 2004; Zhang et al. 2007).
After the tissue was mounted, HCO3^− secretions were initially present in the absence of bath HCO3^−, but rapidly fell towards 0 within 20-30 minutes. If bath HCO3^− was not present during the titration, the HCO3^− secretion remained close to 0. […] When inhibitors were added to the mucosal solution, the pH was adjusted and allowed to equilibrate for 30 minutes, until a steady rate of HCO3^− secretion was observed. When the inhibitor was added to the bath side, the tissue was also equilibrated for 30 minutes to achieve a steady rate of HCO3^− secretion (see Table 3).
All experiments were performed during the initial 1-hour steady-state period. 1 tissue from each animal was used for each experiment; only 1 experimental condition was studied with each tissue sample. All experiments were repeated for at least 4 times.

Series [3] has as its system jejunal mucosa (net anion secretion). Briefly: Ussing chamber transepithelial short circuit current (Isc) with transport blockers/forskolin. The format is cell-based, mice. Particulars: 10 μM bumetanide.
The test system of the next series is glutamine transporter. Description: Glutamine-stimulated Isc / saturation kinetics of glutamine transporter. In kind it is cell-based, mice. Conditions: increasing IR dose.
In series [4] the test system is mice with injury to small intestine mucosa. Briefly: Oral administration of candidate nutrients in radiation, chemotherapy and Crohn's disease models. The procedure: In a Crohn's disease model, mice are injected with anti-CD3 mAb (acute inflammatory model to mimic conditions of Crohn's disease).
The alterations of absorptive capacity of nutrients are determined using disease models with injury to small intestine mucosa, i.e., the radiation model, chemotherapy model, and the Crohn's disease model. Specifically, a candidate nutrient is orally administered to control mice and mice that received irradiation, chemotherapy, and anti-CD3 mAb, respectively. In addition, compositions containing various combinations of the candidate nutrients are orally administered.
To determine the absorptive capacity of each nutrient, bioelectric measurements are performed using an Ussing chamber. The measurements include: a) the sodium coupled-amino acid current (ISC) and changes in conductance, b) changes in saturation kinetics of each nutrient and changes in the ISC following the administration of each nutrient; and c) the electrolyte absorption studies using isotope flux studies in the presence and absence of the specific candidate nutrient.

Another series relates to GI tract mucosa. Particulars: animal studies; cited from earlier work.
The subject of series [5] is patients who have received pelvic radiation therapy. Conditions: oral glutamine feeding; patients after pelvic radiation therapy; cited from earlier work.
In the next series the test system is lysine-transporter. Description: Lysine-stimulated Isc / lysine transport kinetics. In kind it is cell-based, mice.
The test system of the next series is IR mice. Conditions: lysine 20 mg/mice/day orally for 5 days, thereafter every other day.
The conditions of series [6]: clinical trials; cited from earlier work.
Setting [7] is: oral administration, radiation, chemotherapy and Crohn's disease models.
Where [8] appears, read: oral feeding of an irradiated subject.

Several values for one entry are separate records, joined by “and”; a condition that tells them apart may be missing. Identical values can stand only once. Entries after “also recorded” stand apart in the source; their conditions may differ. Like-named read-outs stand apart in the source and are kept apart here.

Source text for IR mice: Gavage was used during the experiment, and treatments were given on the first 5 days after irradiation and every other day until 10 days after irradiation.

Take `O=c1[nH]cc(F)c(=O)[nH]1` [5-FU, 5-fluorouracil]: in the series with small intestine mucosa, the “net anion secretion (transepithelial ISC)” value is “significant increase in net anion secretion” and the “toxicity to small intestine” value was “maximum toxicity to small intestine”.
With `CCCCNc1cc(C(=O)O)cc(S(N)(=O)=O)c1Oc1ccccc1` [bumetanide], the “basal Isc after bumetanide” value in [1] (0-Gy mice, 1.6±0.2 without) is reported as 0.9±0.1 μeq·h^−1·cm^−2; in series [1] (irradiated (3 Gy) tissues, 5.5±0.5 without) it was 0.6±0.1 μeq·h^−1·cm^−2. Moreover, the “forskolin-stimulated Isc after bumetanide” value worked out at 1.3±0.2 μeq·h^−1·cm^−2 in series [1] (0 Gy) and 0.4±0.1 μeq·h^−1·cm^−2 in series [1] (3 Gy). Besides, in [1] (bumetanide on bath side, Cl^−-free solution on both sides), the “basal and forskolin-stimulated increase in Isc” value was “did not inhibit basal and forskolin-stimulated increase in Isc”. In addition, the “HCO3^− secretion” value was 8.4 ± 0.4^ μeq·h^−1·cm^−2 in [2] (0 Gy + bumetanide, tissues treated with forskolin, Cl^−-free lumen solution) and 0.8 ± 0.1^ns μeq·h^−1·cm^−2 in series [2] (3 Gy + bumetanide, Cl^−-free lumen solution). Moreover, the “Isc associated with IR” value in [3] was “abolished almost all of the Isc associated with IR”.
For `C=C[C@@]1(C)CC(=O)[C@]2(O)[C@@]3(C)[C@@H](O)CCC(C)(C)[C@@H]3[C@H](O)[C@H](OC(C)=O)[C@@]2(C)O1` [forskolin], the “forskolin-stimulated Isc” value is given as 6.9±0.6 μeq·h^−1·cm^−2 in [1] (0 Gy) and 7.3±0.5 μeq·h^−1·cm^−2 in series [1] (3 Gy). Also, the “forskolin-stimulated Isc in Cl^−-free solution” value in [1] (0 Gy) turned out to be 1.7±0.2 μeq·h^−1·cm^−2; in [1] (3-Gy irradiated mice), 0.3±0.1 μeq·h^−1·cm^−2. The “HCO3^− secretion” value in series [2] (0 Gy + forskolin, Cl^− containing lumen solution) is 8.4±0.4 μeq·h^−1·cm^−2; in series [2] (0 Gy + forskolin, Cl^−-free lumen solution) it was 8.7±0.4 μeq·h^−1·cm^−2 and 8.7 ± 0.4^ μeq·h^−1·cm^−2; in series [2] (3 Gy + forskolin, Cl^− containing lumen solution), 0.6 ± 0.2 μeq·h^−1·cm^−2; in series [2] (3 Gy + forskolin, Cl^− containing lumen solution, listed as Forskolin), 0.6±0.2 μeq·h^−1·cm^−2; in [2] (3 Gy + forskolin, Cl^−-free lumen solution), 0.9 ± 0.2^ μeq·h^−1·cm^−2. Also, in series [2] (non-irradiated mice, bath Na^+ replaced with NMDG), the “forskolin-stimulated HCO3^− secretion” value is 0.3±0.01 μeq·h^−1·cm^−2.
For the compound `COc1ccc(Cl)cc1C(=O)NCCc1ccc(S(=O)(=O)NC(=O)NC2CCCCC2)cc1` [glibenclamide], the “bumetanide-insensitive Isc after mucosal addition of blocker” value in [1] (0-Gy mice, 10 μM NPPB, 100 μM glibenclamide) came out at 0.1±0.01 μeq·h^−1·cm^−2. The “HCO3^− secretion” value in series [2] (0 Gy + bumetanide, tissues treated with forskolin, 100 μM blocker in lumen solution) is 0.5 ± 0.1^ μeq·h^−1·cm^−2; in series [2] (0 Gy, blocker in lumen solution (100 μM DIDS or glibenclamide)) it was 0.5 ± 0.1^ μeq·h^−1·cm^−2; in series [2] (3 Gy + bumetanide, 100 μM blocker in lumen solution), 0.2 ± 0.1^ns μeq·h^−1·cm^−2; in [2] (3 Gy, blocker in lumen solution / mucosal addition (100 μM DIDS or glibenclamide; NPPB)), 0.11±0.1 μeq·h^−1·cm^−2 and 0.1 ± 0.1^ns μeq·h^−1·cm^−2. Also, the “forskolin-stimulated HCO3^− secretion after blocker” value in series [2] (0 Gy + forskolin) is given as 0.1 ± 0.1^ μeq·h^−1·cm^−2; in series [2] (0 Gy + forskolin, listed as Glibenclamide), 0.1±0.1 μeq·h^−1·cm^−2.
As to `NC(=O)CC[C@H](N)C(=O)O` [glutamine], the “Km of glutamine transporter (saturation kinetics)” value in the series with glutamine transporter (FIG. 15) is “IR dose-dependent increase in Km”. Further, in the series with glutamine transporter (FIG. 15 legend), the “glutamine-stimulated Isc” value was “dose-dependent increase in glutamine-stimulated Isc”. In series [4] (setting [7]), the “small intestine mucosa barrier” value is recorded as “impairs small intestine mucosa barrier” and the survival of mice entry is “has adverse effects on survival of mice”. Further, in [4] (setting [8]), the osmotic diarrhea entry was “cause osmotic diarrhea” and the survival result was “reduced survival”. Moreover, the “protection of GI tract mucosa from injury caused by chemotherapy or radiation therapy” value with GI tract mucosa is “protects both upper and lower GI tract mucosa from injury”. Also, the “prevention or alleviation of acute diarrhea” value in [5] is “fail to show that oral glutamine feeding can prevent or alleviate acute diarrhea”.
For the compound `NCCCC[C@H](N)C(=O)O` [lysine], the “Isc on addition of lysine to small intestine lumen side” value in the series on lysine-transporter was “causes an increase in Isc”. For the same compound, the Km (as a rule, the substrate concentration at which the rate is half of its maximum) in the series on lysine-transporter (3 Gy IR tissues) worked out at 270 ± 10 µM; in the series on lysine-transporter (tissues from non-IR mice), 1160 ± 40 µM. Further, in the series on lysine-transporter (increasing IR dose, FIG. 16 legend), the “lysine-stimulated Isc” value is “dose-dependent decrease in lysine-stimulated Isc”. For the same compound, the survival result in series [4] (setting [8]) is listed as “prolongs survival”. For the same compound, the “effect of oral administration on small intestine healing, paracellular conductance, electrolyte absorption, survival” value in series [4] (radiation, chemotherapy and Crohn's disease models, each amino acid) was “improve small intestine healing, reduces paracellular conductance (thereby improving small intestine mucosal barrier mechanism), increases absorption of electrolytes, and/or improves survival in animals”. Further, the “survival of IR mice with oral lysine” value in the series on IR mice is “increased survival; also recorded: can increase survival in mice”; with IR mice (listed as Lysine), “increased survival”.
With sucralfate, the “reduction of acute GI symptoms (diarrhea prophylaxis)” value in series [6] is recorded as “only a moderate reduction of acute GI symptoms was achieved”.
